In US20250339426A1, “GCN2 MODULATOR FOR TREATING CANCER” (HIBERCELL, INC., priority 2022, published 2025):

What was measured:
[1] = test system: DLD-1 (human colorectal cancer cells); experiment: In vivo tumor growth inhibition, DLD-1 xenograft; set-up: species or system BALB/c nude mice; conditions: for TGI %: combination studies (Examples 9, 11)
Procedure: DLD-1 (human colorectal cancer cells): Female 6-8 weeks old BALB/c nude mice were inoculated subcutaneously on the right flank with DLD-1 tumor cells (5×10^6) in 0.1 ml of RPMI1640 medium without serum for tumor development. The treatments were started when the mean tumor size reached approximately 195 mm^3 at Day 7 post inoculation and continued until end of study by twice daily oral gavage dosing of HC-7366 at listed doses (vehicle, 0.3 mg/kg HC-7366, 1 mg/kg HC-7366, 3 mg/kg HC-7366, 10 mg/kg HC-7366, or 30 mg/kg HC-7366, FIG. 10). For the time course study, tumors were harvested at Days 4, 7 and 14. Tumors were then used for IHC and RNAseq experiments (see Example 21).
(§1) [formula] • 2.2.2 Tumor Measurements: The measurement of tumor size was conducted three times weekly with a caliper and recorded. The tumor volume (mm^3) was estimated using the formula: TV=a×b^2/2, where “a” and “b” is long and short diameters of a tumor, respectively. Tumor volume was calculated using the formula [tumor volume (mm^3)=π/6×length×width^2).
(§2) Regression was calculated using the formula=100×ΔT/T initial, if ΔT<0. Animals with 0 mm^3 tumor volume (no measurable tumor) for three consecutive measurements were considered as complete responders and animals with 50% tumor regressions were partial responders.
(§3) The effect of DC101 in combination with HC-7366 in DLD-1 tumor-bearing mice was evaluated using protocols analogous to those described in Example 6. Mice were treated with 3 or 30 mg/kg HC-7366, twice daily by oral gavage. DC101 was administered at 20 mg/kg twice weekly and with twice daily dosing via intraperitoneal injection.
as §3, with “5-fluorouracil” for “DC101”, “75” for “20”, “once a week,” for “twice weekly and with”, “daily” for “daily dosing”, “intravenous” for “intraperitoneal”

[2] = test system: ASNS, PSAT1, PHGDH, PUMA, S100A8/A9 in KG-1 tumors; experiment: Tumor IHC, KG-1 tumors; type: in vivo, NOD SCID mice
Procedure: (§4) Immunohistochemical analysis was carried out on tumors that were collected at the end of the study described in Example 6. Formalin-fixed paraffin-embedded samples were sectioned at 5 μm thickness and mounted on Superfrost Plus microscope slides (Fisher Scientific). All immunohistochemical (IHC) staining was performed on Bond Rx auto-stainer (Leica Biosystems) using the conventional TSA-amplified detection system. Primary antibodies used were as follows: a-ASNS (Cell Signaling Technology #92479), a-PUMA (Cell Signaling Technology #98672), a-PSAT1 (Proteintech #10501-1-AP), a-PHGDH (Proteintech #14719-1-AP), HIF-1a-Novus Biologicals NB 100-479, HIF-2a-Novus Biologicals NB100-122SS, and GLUT-1-EMB Biosciences 07-1401. TSA-conjugated Alexa488, Alexa 568 and Alexa647 fluorophores from Invitrogen (#B40953, #B40956, and #B40958) were used at 1:500 dilution. Slides were counterstained with DAPI and cover slipped using Mowiol anti-fade mounting media (Sigma #D2522).
(§5) Slides were imaged with Aperio Versa 200 (Leica Biosystems) whole-slide scanner using 10×/0.32NA objective, and the data were analyzed using custom-written macros in ImageJ/FIJI (NIH). Briefly, 150 μm of outer edges of the tumor sections and necrotic regions (determined by lack of 4′,6-diamidino-2-phenylindole (DAPI) signal or presence of condensed DNA) were eliminated from the analysis. Gaussian-blurred DAPI channel was used to measure the area of the tumor tissue. Scans of immune-staining were processed to remove background, then total intensity value above appropriate threshold levels was measured and normalized to tissue area. All graphing and statistics (one-way ANOVA and pair-wise comparisons) were performed using Prism GraphPad.
Slides were deparaffinized, rehydrated and heat mediated antigen retrieval was conducted with AR6 buffer (Akoya). Slides were blocked with Roche diagnostics antibody diluent (Fisher) and stained with primary antibodies for 1 hr at 110 rpm. After washing, horseradish peroxidase (HRP)-conjugated secondary antibodies were added for 10 mins at 110 rpm. After washing, OPAL detection dye (Akoya) was added for a static 10 min incubation. Antigen retrieval was performed post OPAL staining, followed by DAPI staining and slide covering. Multispectral images were captured on the Polaris imaging system (Akoya) and spectral unmixing, cell segmentation and phenotyping was performed using Inform Tissue Finder software (Akoya). Imaging data was converted into .csv files and imported into Flowjo for analysis of S100A8/A9 percent positive cells. Primary antibodies used were rabbit anti-human/mouse S100A8/A9 (Clone RM1038, Abcam ab288715, paired with Opal 570).

[3] = test system: patient-derived Champions' human AML models; experiment: Ex vivo AML PDX cell viability (Cell Titer Glo), 30 models; type: cell-based; conditions: for EC50: Homo sapiens
Procedure: . Cell viability was assayed after treating PDX models with DMSO or HC-7366 for 6 days using a plate-based luminescence assay (Cell Titer Glo). […]
EC50 values were calculated to the bottom of the curve and are provided below. Viability curves are provided for the models CTG-2229 (FIG. 81), CTG-3680 (FIG. 82), CTG-3667 (FIG. 83), CTG-2456 (FIG. 84), CTG-2457 (FIG. 85), and CTG-2454 (FIG. 86).

[4] = test system: ASNS, PSAT1, PUMA, HIF1α, HIF2a in DLD-1 tumors; experiment: Tumor IHC, DLD-1 tumors; type: in vivo, BALB/c nude mice
Procedure: as §4, §5

[5] = test system: FaDu (human head and neck cancer cells); experiment: In vivo tumor growth inhibition, FaDu xenograft; set-up: species or system BALB/c nude mice
Procedure: FaDu (human head and neck cancer cells): Female 6-8 weeks old BALB/c nude mice were inoculated subcutaneously on the right flank with FaDu tumor cells (5×10^6) in 0.1 ml of EMEM medium without serum for tumor development. The treatments were started when the mean tumor size reached approximately 194 mm^3 at Day 21 post inoculation and continued until end of study by twice daily oral gavage dosing of HC-7366 at listed doses (vehicle, 0.3 mg/kg HC-7366, 1 mg/kg HC-7366, 3 mg/kg HC-7366, 10 mg/kg HC-7366, or 30 mg/kg HC-7366, FIG. 11-13).
as §1, §2

[6] = end of study (day 27), highest induction at 1 and 3 mg/kg
[7] = end of study (day 20), bell-shaped manner
[8] = printed 'in FaDu tumors', FIGS. 29-39

CNC(=O)c1ncn2cc(-c3c(F)ccc(NS(=O)(=O)c4cc(Cl)cnc4OC)c3F)ncc12 [HC-7366, 6-(3-((5-chloro-2-methoxypyridine)-3-sulfonamido)-2,6-difluorophenyl)-N-methylimidazo[1,5-a]pyrazine-1-carboxamide] was tested, and the tumor growth inhibition ([1]; 1 mg/kg and 3 mg/kg twice daily oral) was about 78%, the TGI % ([1]; HC-7366 3 mg/kg twice daily oral) was about 65% and the TGI % ([1]; HC-7366 30 mg/kg twice daily oral) was about 21%. For the same molecule, the “protein levels of S100A8/A9” value ([2]; 1 and 3 mg/kg doses, day 27) was “potently reduced”, the PUMA levels ([2]; day 27) was “not changed” and the “ASNS by IHC” value [2, 6] was “potently induced”. For the same molecule, the “PHGDH by IHC” value [2, 6] was “potently induced”, the “PSAT1 by IHC” value [2, 6] was “potently induced” and the “viability of primary AML PDX cells” value ([3]; 4.57-10,000 nM, 6 days) was “potently reduced viability”. The EC50 ([3]; 5 PDX models, resistant responders) was 924 to 2250 nM, the EC50 ([3]; 11 PDX models, sensitive responders) was under 100 nM and the EC50 ([3]; 12 PDX models, moderate responders) was 100 to 350 nM. For the same molecule, the response ([3]; two models) was “no response”, the “ASNS by IHC” value [4, 7] was “potently induced” and the “PSAT1 by IHC” value [4, 7] was “potently induced”. For the same molecule, the “PUMA by IHC” value [4, 7] was “potently induced”, the HIF1α protein levels [4, 8] was “significantly reduced” and the HIF2α protein levels [4, 8] was “significantly reduced”. The tumor regression ([5]; 1 mg/kg twice daily oral) was 33% and the TGI ([5]; all doses) was “significant TGI”.
